Measurements as given in patent publication US20050244490A1, “Dosing methods for beta-D-2',3'-dideoxy-2',3'-didehydro-5-fluorocytidine antiviral therapy” (priority 2003, published 2005).
Where two headings read alike, the source gives them in different places.

Experiments:
M184V mutant RT = M184V mutant RT (Human immunodeficiency virus type 1 group M subtype B, UniProt P04585, M771V); test: biochemical; type: biochemical, HIV-1
clinical [1] = settings: in vivo
[2] = pbmc
[3] = test system: acutely HIV-1 infected human PBM cells; test: Median effect / combination index study with Racivir; type: cell-based; settings: Human immunodeficiency virus 1, PBMC, 120 h
wild type HIV-RT = target: T1, wild type HIV-RT (Human immunodeficiency virus type 1 group M subtype B, UniProt P04585); test: Ki / Km for wild type HIV-RT; type: biochemical, HIV-1
T1 construct: The Ki value for β-D-D4FC-TP for wild type HIV-RT

[4] = human, in vivo
[5] = test system: AZT/3TC-resistant HIV-1 recombinant viruses; test: microbe, parasite or virus in culture; type: cell-based; settings: Human immunodeficiency virus 1, read-out: Average IC90 for AZT/3TC-R virus
Protocol: A panel of 22 viruses was constructed in the HXB2 background using the Protease and RT sequences from clinical isolates to determine Virco Profiling against recombinant clinical isolates (see FIGS. 7a and 7b). Viruses contained 2 to 17 mutations in RT frequently associated with nucleoside resistance, including: M184V, M41L, D67N, T215Y. IC50 values were determined using a high through-put reporter virus assay.

HIV viral load = settings: cited from earlier work
DNA Pol γ = target: T2, DNA Pol γ (Homo sapiens, UniProt P54098); test: Inhibition of pure DNA polymerase γ by nucleoside triphosphates; type: biochemical; settings: tritiated dCTP incorporation
T2 sequence (P54098 1-1239): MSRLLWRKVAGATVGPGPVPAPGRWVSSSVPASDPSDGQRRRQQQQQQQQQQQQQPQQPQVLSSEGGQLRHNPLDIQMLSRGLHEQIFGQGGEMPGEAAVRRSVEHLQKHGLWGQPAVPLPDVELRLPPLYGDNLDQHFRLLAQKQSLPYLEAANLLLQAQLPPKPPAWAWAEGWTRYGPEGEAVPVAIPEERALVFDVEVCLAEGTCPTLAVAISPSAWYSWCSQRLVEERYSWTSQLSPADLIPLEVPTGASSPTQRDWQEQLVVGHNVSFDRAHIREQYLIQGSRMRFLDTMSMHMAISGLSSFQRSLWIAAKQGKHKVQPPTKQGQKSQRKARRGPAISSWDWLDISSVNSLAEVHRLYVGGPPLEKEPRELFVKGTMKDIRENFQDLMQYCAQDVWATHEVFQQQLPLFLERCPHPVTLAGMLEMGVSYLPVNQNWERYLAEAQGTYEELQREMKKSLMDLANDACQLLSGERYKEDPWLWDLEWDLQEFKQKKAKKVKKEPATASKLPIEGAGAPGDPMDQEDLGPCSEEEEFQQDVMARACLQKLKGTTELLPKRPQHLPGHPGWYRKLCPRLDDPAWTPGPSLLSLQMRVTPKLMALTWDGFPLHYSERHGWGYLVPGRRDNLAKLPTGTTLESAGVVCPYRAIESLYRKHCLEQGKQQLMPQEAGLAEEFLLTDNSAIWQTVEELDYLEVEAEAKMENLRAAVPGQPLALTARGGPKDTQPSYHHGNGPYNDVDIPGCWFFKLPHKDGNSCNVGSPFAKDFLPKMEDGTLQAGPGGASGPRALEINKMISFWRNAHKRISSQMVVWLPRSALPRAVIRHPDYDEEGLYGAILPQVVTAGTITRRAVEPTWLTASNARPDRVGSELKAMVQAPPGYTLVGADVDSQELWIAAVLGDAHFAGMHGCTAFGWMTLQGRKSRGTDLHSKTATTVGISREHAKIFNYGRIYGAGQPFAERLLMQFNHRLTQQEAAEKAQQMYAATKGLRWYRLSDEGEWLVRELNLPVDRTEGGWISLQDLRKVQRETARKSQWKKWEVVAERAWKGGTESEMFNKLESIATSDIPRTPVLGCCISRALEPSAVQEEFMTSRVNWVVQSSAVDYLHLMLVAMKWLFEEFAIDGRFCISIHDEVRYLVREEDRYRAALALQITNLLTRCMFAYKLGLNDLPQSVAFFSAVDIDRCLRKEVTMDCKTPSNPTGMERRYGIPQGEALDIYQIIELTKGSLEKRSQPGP
Protocol: (§1) Triphosphates of nucleosides were tested against pure polymerases using tritiated dCTP incorporation.

DNA Pol β = DNA Pol β (Homo sapiens, UniProt P06746); test: Inhibition of pure DNA polymerase β by nucleoside triphosphates; type: biochemical; settings: tritiated dCTP incorporation
Protocol: as §1

HIV RT = target: T3, HIV RT (Human immunodeficiency virus type 1 group M subtype B, UniProt P04585); test: Inhibition of purified HIV-1 reverse transcriptase by nucleoside triphosphates (tritiated dCTP incorporation); type: biochemical
T3 construct: purified HIV-1 reverse transcriptase (RT)
Protocol: An assay was performed to determine the ability of β-D-D4FC-triphosphate to terminate polymerization catalyzed by purified HIV-1 reverse transcriptase (RT). […] The target concentration is that concentration where most mutant variants tested are suppressed by 90% or more. The concentration of 5 μM is the target plasma concentration as most, mutant variants tested were suppressed ≧90% in vitro.
as §1

[6] = Intracellular phosphorylation and triphosphate half-life in PBMCs
clinical [7] = settings: male, human, in vivo
Protocol: Total of 18 HIV-1 infected males, aged 18-55 years, enrolled, 6 per treatment cohort.
In Cohort 3, subjects received either 100 mg, or 200 mg, or placebo.
The data was analyzed using non-compartmental and two-compartmental models.
HIV RNA levels were also determined using quantitative real-time RT-PCR.
Plasma HIV-1 RNA levels were measured by quantitative reverse transcriptase-polymerase chain reaction (Q-RT-PCR) essentially as described by Stuyver, L. J. et al., “Antiviral activity and cellular toxicity of modified 2′,3′-dideoxy-2′,3′-didehydrocytidine analogues” Antimicrob Agents Chemother.

[8] = pure polymerase, tritiated dCTP incorporation, read-out: IC50

Compound: Cc1cn([C@H]2C=C[C@@H](CO)O2)c(=O)[nH]c1=O [D4T, 2′,3′-didehydro-2′,3′-dideoxythymidine]
- Ki (M184V mutant RT): 3000 nM
- Cmax (clinical [1]): 2700 nM
- half-life (clinical [1]): 1.7 h
- Intracellular half life [2]: 3.5 h
- EC50 [3]: 50 nM
- EC90 [3]: 350 nM
- Ki (wild type HIV-RT): 50 to 300 nM
- Intracellular [Nuc-PPP] in patients [4]: 0.05 µM
- IC90 [5]: 6800 nM

Compound: Nc1nc(=O)n([C@@H]2CS[C@H](CO)O2)cc1F [FTC, β-L-2′,3′-dideoxy-3′-thia-5-fluorocytidine]
- Viral Load Decline (log) (HIV viral load; 200 mg QD, duration of dosing 12): −1.7 log

Compound: Nc1ccn([C@@H]2CS[C@H](COP(=O)(O)OP(=O)(O)OP(=O)(O)O)O2)c(=O)n1 [3TC-TP]
- Ki (M184V mutant RT; read-out: Ki M184V): 85000 nM
- IC50 (DNA Pol γ): 43100 nM
- IC50 (DNA Pol β): 10300 nM
- Ki (wild type HIV-RT; read-out: Ki WT): 950 nM
- IC50 (HIV RT; [8]): 570 nM

Compound: Nc1nc(N)c2ncn([C@H]3CO[C@@H](CO)O3)c2n1 [DAPD, β-D-dioxolanyl-2,6-diaminopurine]
- Viral Load Decline (log) (HIV viral load; 300 mg BD, duration of dosing 14, add-on study in experienced patients): −1.5 log

Compound: Nc1nc(=O)n([C@H]2C=C[C@@H](COP(=O)(O)OP(=O)(O)OP(=O)(O)O)O2)cc1F [β-D-D4FC-TP]
- Intracellular half life [6]: 13 to 17 h
- intracellular half-life [6]: 13 to 17 h
- extracellular concentration at which intracellular conversion to β-D-D4FC-TP plateaus ([6]; PHA-stimulated PBMCs): ~10 µM
- accumulation, % of parent ([6]; in 8-10 hours): ~10%
- Ki (M184V mutant RT; read-out: Ki M184V): 300 nM
- IC50 (DNA Pol γ): 740 nM
- IC50 (DNA Pol β): 1200 nM
- Ki (wild type HIV-RT; read-out: Ki WT): 100 nM
- IC50 (HIV RT; [8]): 140 nM
- IC50 (HIV RT; read-out: IC50, wild type purified RT): 67 ± 40 nM

Compound: Nc1ccn([C@H]2CO[C@@H](CO)S2)c(=O)n1 [SPD 754]
- Viral Load Decline (log) (HIV viral load; 1200 mg QD, duration of dosing 10): −1.62 log

Compound: Nc1nc(=O)[nH]cc1F [5FC, 5-fluorocytosine]
- AUC (clinical [7]; 10 mg): 0.39 ± 0.26 µM·h
- AUC(0-τ) (clinical [7]; 10 mg): 136 ± 14 ng·h/mL
- AUC(0-∞) (clinical [7]; 10 mg): 149 ng·h/mL
- CLr (clinical [7]; 10 mg): 1.39 L/h
- CLtot/F (clinical [7]; 10 mg): 67 957 mL/h
- T ½ (clinical [7]; 10 mg): 6.4 ± 4.2 h
- Tmax (clinical [7]; 10 mg): 1.0 ± 0.3 h
- t1/2 λz (clinical [7]; 10 mg): 2.41 h
- tmax (clinical [7]; 10 mg): 1.08 h
- AUC (clinical [7]; 25 mg): 1.52 ± 0.87 µM·h
- AUC(0-τ) (clinical [7]; 25 mg): 234 ng·h/mL
- AUC(0-∞) (clinical [7]; 25 mg): 250 ng·h/mL
- CLr (clinical [7]; 25 mg): 1.27 L/h
- CLtot/F (clinical [7]; 25 mg): 115 262 mL/h
- T ½ (clinical [7]; 25 mg): 9.5 ± 5.2 h
- Tmax (clinical [7]; 25 mg): 1.8 ± 0.9 h
- t1/2 λz (clinical [7]; 25 mg): 4.60 h
- tmax (clinical [7]; 25 mg): 1.33 h
- AUC (clinical [7]; 100 mg): 1.93 ± 0.68 µM·h
- AUC(0-τ) (clinical [7]; 100 mg): 309 ng·h/mL
- AUC(0-∞) (clinical [7]; 100 mg): 340 ng·h/mL
- CLr (clinical [7]; 100 mg): 10.26 L/h
- CLtot/F (clinical [7]; 100 mg): 307 932 mL/h
- T ½ (clinical [7]; 100 mg): 18.6 ± 10.1 h
- Tmax (clinical [7]; 100 mg): 3.7 ± 0.8 h
- t1/2 λz (clinical [7]; 100 mg): 8.50 h
- tmax (clinical [7]; 100 mg): 3.67 h
- AUC (clinical [7]; 200 mg): 14.43 ± 13.12 µM·h
- AUC(0-τ) (clinical [7]; 200 mg): 1,665 ng · h/mL
- AUC(0-∞) (clinical [7]; 200 mg): 1,887 ng · h/mL
- CLr (clinical [7]; 200 mg): 4.60 L/h
- CLtot/F (clinical [7]; 200 mg): 169 692 mL/h
- T ½ (clinical [7]; 200 mg): 11.2 ± 7.1 h
- Tmax (clinical [7]; 200 mg): 3.3 ± 3.2 h
- t1/2 λz (clinical [7]; 200 mg): 10.48 h
- tmax (clinical [7]; 200 mg): 3.33 h

Compound: Cc1cn([C@H]2C[C@H](F)[C@@H](CO)O2)c(=O)[nH]c1=O [FLT]
- Viral Load Decline (log) (HIV viral load; 7.5 mg QD, duration of dosing 28, add-on study in experienced patients): −1.88 log
